Experimental data: patent publication US4374857A, “Method of inhibiting L-tryptophan to serum albumin binding” (Her Majesty the Queen in right of Canada, as represented by …, priority 1982, dated 1983)
Entries after “also recorded” stand apart in the source; their conditions may differ.

Target: T1, human serum albumin (Homo sapiens, UniProt P02768)
T1 construct: purchased Sigma, St. Louis, MO
Test: Equilibrium dialysis of 14C-L-TRP binding to human serum albumin in presence of ligands (Scatchard plots)
Settings: for effect on L-TRP binding to albumin: one molar equivalent of ligand; for effect on L-TRP binding capacity of albumin: second and third molar equivalents of ligand; for reduction of the affinity (Ka) of L-TRP for albumin: two moles of ligand per mole albumin, equilibrium dialysis, 37° C., pH 7.4
Procedure: Human serum albumin (Fraction V) was purchased from Sigma, St. Louis, MO. The protein was defatted with activated charcoal according to Chen, R. F. (1967), J. Biol. Chem 242: 173-181 and monomeric albumin purified as previously described in Soltys, B. J. and Hsia, J. C. (1977), J. Biol. Chem. 252: 4043-4048. Protein concentration was determined by absorption of ultraviolet light, assuming E279 nm^1% =5.30 according to Clark, P., Rachinsky, M. R. and Foster, J. F. (1962), J. Biol. Chem. 237: 2509-2513. The sodium salt of cis-parinaric acid was dissolved in 1×10^-4 Malbumin in Ringer's buffer. The Ringer's buffer contained 110 mM NaCl, 5 mM KCl, 1.2 mM MgSO4, 1.2 mM KH2 PO4 and 10 mM Na2 HPO4 at a pH of 7.4 at 37° C. L-tryptophan, stearate and bilirubin were also purchased from Sigma, St. Louis, MO. cis-parinaric acid was purchased from Molecular Probes Inc., Plano, TX. L-[side chain-3 -^14 C]-tryptophan (^14 C-L-TRP) was purchased from New England Nuclear, Boston, Mass. Fatty acids and bilirubin were dissolved in albumin solution essentially as previously described in Soltys, B. J. and Hsia, J. C. (1977), J. Viol. Chem. 252: 4043-4048. Briefly, fatty acid or bilirubin (sodium salt) in methanol was dried under vacuum in dim light to form a thin film in a small glass vial. The albumin solution was added to the vial and gently blended on a Vortex mixer until optically clear.
Equilibrium dialysis cells (approximately 200 μl total capacity) with injection/sampling ports were used. Dialysis membranes (Canlab, Toronto, Ont), previously boiled in distilled water, were placed on one half-cell and then the two half-cells were bolted together. 100 ul of albumin (1×10^-4 M), or its ligand complex was added to one side of the dialysis cells, while 100 μl of a solution of ^14 C-L-TRP was added to the other side.
The cells were sealed with tape and incubated with slight oscillation at 37±0.5° C. in a jacketed incubator (Model 3314, Forma Scientific, Marietta, OH). The cells contained total amount of L-TRP varying from 0.5 to 20 times the number of moles of albumin. After six hours incubation, 25 μl samples were drawn from the albumin side and the buffer side of each cell. These were counted in 6 ml plastic scintillation vials (Canlab) containing 5 ml Aquasol (New England Nuclear) in a liquid scintillation counter (LS 9000, Beckman, Irvine, CA). A quench curve was constructed to correct for quenching of counts by bilirubin.
The equation for the Scatchard plot is
where n is the number of binding sites and Ka is the apparent association constant. Thus the r-intercept is n and the r/c-intercept is nK (a measure of binding capacity), while the negative slope yields the Ka.

T1 sequence (P02768 25-609): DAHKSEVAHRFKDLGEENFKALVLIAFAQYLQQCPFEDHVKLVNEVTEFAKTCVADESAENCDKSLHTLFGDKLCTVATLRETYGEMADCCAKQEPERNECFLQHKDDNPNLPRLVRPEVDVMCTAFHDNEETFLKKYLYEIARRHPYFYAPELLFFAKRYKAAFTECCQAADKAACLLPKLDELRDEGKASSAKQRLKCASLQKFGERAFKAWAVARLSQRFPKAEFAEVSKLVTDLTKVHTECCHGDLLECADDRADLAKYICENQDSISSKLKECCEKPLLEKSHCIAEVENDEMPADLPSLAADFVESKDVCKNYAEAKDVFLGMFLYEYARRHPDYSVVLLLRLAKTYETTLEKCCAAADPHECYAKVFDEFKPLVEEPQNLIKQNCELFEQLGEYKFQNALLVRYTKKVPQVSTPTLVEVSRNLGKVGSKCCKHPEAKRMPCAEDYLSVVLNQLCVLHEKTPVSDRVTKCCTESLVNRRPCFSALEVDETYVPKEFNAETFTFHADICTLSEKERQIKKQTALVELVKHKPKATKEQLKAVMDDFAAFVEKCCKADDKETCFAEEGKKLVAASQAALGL

effect on L-TRP binding capacity of albumin | number of primary binding sites on human serum albumin (Scatchard plot without competing ligand (FIG. 1)) | displacement of albumin-bound tryptophan (2:1 ligand-to-albumin ratio) | inhibitory effect on L-TRP binding capacity of albumin (higher molar ratios (2.0 to 4.0) of ligand) | Structure (SMILES) | effect on L-TRP binding to albumin | effect on specific (primary site) L-TRP binding capacity of albumin (4.0 moles of ligand per mole albumin) | reduction of the affinity (Ka) of L-TRP for albumin
progressive inhibition |  |  |  | C=CC1=C(C)/C(=C/c2[nH]c(Cc3[nH]c(/C=C4\NC(=O)C(C)=C4C=C)c(C)c3CCC(=O)O)c(CCC(=O)O)c2C)NC1=O [bilirubin, reference compound] | did not affect; also recorded: little effect |  | 
 | one |  |  | N[C@@H](Cc1c[nH]c2ccccc12)C(=O)O [L-TRP, L-tryptophan] |  |  | 
abolished |  | up to 90% | most effective | CC\C=C/C=C/C=C/C=C\CCCCCCCC(=O)O [cis-parinaric acid, cis, trans, trans, cis-9,11,13,15-octadecatetraenoic acid] | strong inhibitory effect | completely blocked; also recorded: completely abolished | 80%
 |  |  |  | CCCCCCCCCCCCCCCCCC(=O)O [stearate, reference compound] |  |  | 20%
